{
  "source": "patent US7223835B2",
  "about": "“VEGF peptides and their use for inhibiting angiogenesis” (Ark Therapeutics Ltd., priority 2000, dated 2007)",
  "tested_on": "human endothelial cell-derived tubule formation",
  "test": "In vitro angiogenesis assay, endothelial cell-derived tubule formation in co-culture with human fibroblasts",
  "assay_type": "cell-based",
  "conditions": "tubule formation at day 11, CD31 immunostaining, with and without VEGF; FIG. 4",
  "experimental": "An in vitro angiogenesis assay based on human endothelial cell-derived tubule formation (TCS Biologicals) in a co-culture with human fibroblasts was used to investigate the effects of selected peptides on angiogenesis. The peptides, together with VEGF and other factors were added at the start of the experiment and at each medium change at days 4, 7 and 9. At day 11, the cultures were fixed with 70% ethanol for 30 min at room temperature and subsequently subjected to immunostaining for the endothelial cell adhesion molecule CD31. Fixed cells were incubated with the primary antibody (mouse anti-human CD31) for 1 h at 37° C., washed 3 times in blocking buffer (PBS containing 1% BSA), and then incubated with the secondary antibody (goat anti-mouse IgG conjugated to alkaline phosphatase) for 1 h at 37° C. After 3 washes in distilled water, the cells were finally incubated with the substrate solution for 10 min at 37° C. Immunostaining was observed and photographed using an inverted Zeiss microscope (Axiovert CFL25) fitted with a ×4 objective lens. […] A, VEGF released from untreated control during 11 days, measured by specific immunoassay; B, untreated control; C, VEGF; D, peptide 121–132; E, VEGF in the presence of peptide 121–132; F, peptide 125–136; and G, VEGF in the presence of peptide 125–136.",
  "data": [
    {"substance": "RKRKKSR [SEQ ID NO:21, 7-mer truncated derivative of the 12-mer V125–136 protein]", "values": [
      {"measurement": "inhibition of angiogenesis (Chalkley count), potency compared with the 12-mer", "value": "inhibits angiogenesis with similar potency to the 12-mer"}
    ]}
  ]
}
